Laboratory results: patent publication US3950393A, “Aminobenzyl-amides and salts thereof” (Boehringer Ingelheim GmbH, priority 1973, dated 1976)
Where a name gives a salt, the structure may show the parent alone. Read-outs that look alike come from different tables or passages of the source.

Columns and labels:
guinea pigs = assay: Secretolytic (expectorant) effect in anesthetized guinea pigs after oral application; assay type: in vivo; conditions: 8 mgm/kg oral, within 2 hours, 6-8 animals
Experimental: (§1) The expectorant activity was tested on anesthetized rabbits and guinea pigs after oral application of 8 mgm/kg of the test compound to 6-8 animals. The increase in secretion within 2 hours was calculated from the amounts of secretion before and after application of the substance [see Perry and Boyd in Pharmakol. exp. Therap. 73, 65 (1941)].

white mice = assay: in vivo
Experimental: (§2) The acute toxicity of the test compounds was determined after a single application of 1000 or 2000 mgm/kg p.o., respectively, to 5 white mice each.

in vivo = conditions: mouse, in vivo, po
Experimental: as §2

rabbits = assay: Secretolytic (expectorant) effect in anesthetized rabbits after oral application; assay type: in vivo; conditions: 8 mgm/kg oral, within 2 hours, 6-8 animals
Experimental: as §1

cats = assay: Circulatory effect in cats under chloralose-urethane anesthesia after intravenous application; assay type: in vivo; conditions: 2, 4 and 8 mgm/kg intravenous, 3 animals per dose
Experimental: The circulatory effect in cats was determined under chloralose-urethane anesthesia after intravenous application of 2,4 and 8 mgm/kg of the test compound (3 animals per dose).

ulcers = assay: Anti-ulcerogenic activity, acetic acid stomach ulcers, method of K. Takagi et al; assay type: in vivo, female rats; conditions: three weeks with food
Experimental: The inhibiting effect of the test compounds on the formation of ulcers was determined according to the method of K. Takagi et al [Jap. J. Pharmac. 19, 418 (1969)]. The abdominal cavity of anesthetized female rats having a body weight from 220 to 250 gm was opened and the stomach was exposed. Then, 0.05 ml of an aqueous 5% acetic acid solution was injected between the muscularis mucosae and submucosa of the stomach. Thereafter, the abdominal cavity was closed again. The ulcers formed in the mucosa after 3 to 5 days were treated for three weeks by admixing the test compound in question with the food at dosage levels of 50 and 100 mgm/kg (6 animals/dose). The control animals were fed with the pulverized food only.
After treatment for three weeks the animals were killed, the stomach was removed, and the size of the ulcers was determined by measurement of their length and width. The anti-ulcerogenic activity of the test compound was determined by the size of the ulcers comparing with the control values (100%): […]

[1] = single application, 5 white mice, read-out: Acute toxicity

Row | Molecule | Increase in secretion (guinea pigs) | animals died (white mice; single 1000 mgm/kg p.o.) | LD50 (in vivo; [1]) | Increase in secretion (rabbits) | Circulatory effect (cats) | reduction of the ulcers compared with control values (ulcers; peroral dosage of 50 mgm/kg) | reduction of the ulcers compared with control values (ulcers; peroral dosage of 100 mgm/kg) | animals died (white mice; single 2000 mgm/kg p.o.) | LD50 (in vivo)
1 | 2-amino-3-bromo-N-cyclohexyl-N-ethyl-3-fluoro-benzylamine hydrochloride | 100% | 0 out of 5 | – | – | – | – | – | – | –
2 | CN(C)Cc1cc(F)cc(Br)c1N.Cl [G, 2-amino-3-bromo-N,N-dimethyl-5-fluoro-benzylamine hydrochloride] | 84% | 0 out of 5 | > 1000 mg/kg | – | – | – | – | – | –
3 | CC(=O)c1cc(Br)c(N)c(CN(C)C)c1 [F, 5-acetyl-2-amino-3-bromo-N,N-dimethyl-benzylamine] | – | 2 out of 5 | ~1000 mg/kg | 75% | – | – | – | – | –
4 | CCN(Cc1cc(C(=O)O)cc(Br)c1N)C1CCCCC1.Cl [B, 2-amino-3-bromo-5-carboxy-N-cyclohexyl-N-ethyl-benzylamine hydrochloride] | 81% | 0 out of 5 | > 1000 mg/kg | – | no change | – | – | – | –
5 | CCOC(=O)c1cc(Br)c(N)c(CN(CC)CC)c1.Cl [A, 2-amino-3-bromo-5-carbethoxy-N,N-diethyl-benzylamine hydrochloride] | 90% | – | > 2000 mg/kg | – | no change | 52% | 79% | 0 out of 5 | –
6 | CC(C)(C)c1cc(N)c(CN2CCOCC2)cc1Br.Cl.Cl [E, N-(2-amino-5-bromo-4-tert.butyl-benzyl)-morpholine dihydrochloride] | – | 0 out of 5 | > 1000 mg/kg | 77% | – | – | – | – | –
7 | Cc1cc(Br)cc(CN2CCCCCC2)c1N [D, N-(2-amino-5-bromo-3-methyl-benzyl)-hexamethyleneamine dihydrochloride] | – | 0 out of 5 | – | 72% | – | – | – | – | > 1000 mg/kg
